Four compounds from paper PMC12177571, “Glycosidase-activated prodrugs of a cytotoxic iron chelator for targeted cancer therapy” (RSC Medicinal Chemistry, 2025) can be followed below.

The subject of one test is A549 cells. The test is described as follows: MTT cell viability assay, A549 cells. To be noted: Homo sapiens, 72 h incubation, mean and SD of three independent experiments, read-out: IC50 against A549. In kind it is cell-based. As to the method: (§1) Next, the cytotoxicity of the prodrugs was assessed in the human lung cancer (A549) and human ovarian cancer (OvCar-3) cell lines: overexpressing β-glucosidase, and, overexpressing both β-glucosidase and β-galactosidase, respectively.[40,41] For this, a standard MTT assay was employed to generate the proliferation profiles (cf. ESI ^† Fig. S1–S5) and allowed us to calculate the IC50 values for each compound. GM5756 fibroblast cells were included as non-cancerous control.
(§2) Cell culture. Ovcar-3 cells were maintained in RPMI-1640 medium (Invitrogen), A549 cells were maintained in high glucose (4.5 g/L) Dulbecco’s Modified Eagle’s medium (Invitrogen. Alle employed culture media were supplemented with 10% fetal bovine serum (Gibco), 2% penicillin/streptomycin (Sigma Aldrich), 1%GlutaMAX™-I (100x, Gibco), and 1% sodium pyruvate (100 mM, Gibco).
(§3) Cells were kept under a humidified atmosphere of 10% CO2 and 90% air at 37°C. Cells were split when they reached 90% confluency. All employed cell lines were sourced from the German Collection of Microorganisms and Cell Cultures (Leibnitz Institute, DSMZ).
(§4) Cell viability studies and MTT assays. Cells were harvested and plated on a 96-well plate in 100 µL growth medium at a density of 1500 cells per well. The cells were left to grow for 24 h at 37°C under a humidified atmosphere with 10% CO2. The next day, 100 µL of growth medium containing appropriate concentrations of the investigated compound were added to each well. As a control, the first row of wells was treated with 100 µL medium containing only the vehicle (1% DMSO); all wells contained a final concentration of 0.5% DMSO for the duration of the treatment. After incubation with the compound for 72 h, 50 µL of MTT solution (2.5 mg/mL 3-(4,5-dimethylthiazol-2-yl)-2,5-diphenyltetrazolium bromide dye in PBS buffer) was added to each well. After an additional incubation for 2 h, the supernatant was aspired off and 200 µL of DMSO was added to each well to solubilize the precipitated formazan dye. The produced formazan dye was quantified by measuring the optical density of the solution at 550 nm with a Tecan Infinite M Nano+ plate reader. A baseline correction was performed by subtracting a reference absorbance at 620 nm for each well. From the mean of the corrected absorbances for each set of equivalent wells, a dose-response curve was produced, which was then normalized to the wells containing untreated cells to allow for plate-to-plate comparison. The resulting dose-response curves were subjected to non-linear regression analysis performed in Microsoft Excel (version 16.64) to determine IC50 via the Hill-Langmuir model. Data is shown as the mean of three replicate experiments and error bars represent the standard deviation at each datum point.
A general note: Tetrazolium assays rely on reduction of a dye to a coloured formazan, in cell work by metabolically active cells.

The subject of the next test is OvCar-3 cells. The test is described as follows: MTT cell viability assay, OvCar-3 cells. The test is classed as cell-based. The settings on record: Homo sapiens, 72 h incubation, mean and SD of three independent experiments, read-out: IC50 against OvCar-3. As to the method:
as §1, §2, §3, §4

For the next test, the target named is T1, β-galactosidase (Escherichia coli, UniProt P00722).
T1 construct: purchased Roche; host or cells: E. coli overproducer
T1 sequence (P00722 2-1024): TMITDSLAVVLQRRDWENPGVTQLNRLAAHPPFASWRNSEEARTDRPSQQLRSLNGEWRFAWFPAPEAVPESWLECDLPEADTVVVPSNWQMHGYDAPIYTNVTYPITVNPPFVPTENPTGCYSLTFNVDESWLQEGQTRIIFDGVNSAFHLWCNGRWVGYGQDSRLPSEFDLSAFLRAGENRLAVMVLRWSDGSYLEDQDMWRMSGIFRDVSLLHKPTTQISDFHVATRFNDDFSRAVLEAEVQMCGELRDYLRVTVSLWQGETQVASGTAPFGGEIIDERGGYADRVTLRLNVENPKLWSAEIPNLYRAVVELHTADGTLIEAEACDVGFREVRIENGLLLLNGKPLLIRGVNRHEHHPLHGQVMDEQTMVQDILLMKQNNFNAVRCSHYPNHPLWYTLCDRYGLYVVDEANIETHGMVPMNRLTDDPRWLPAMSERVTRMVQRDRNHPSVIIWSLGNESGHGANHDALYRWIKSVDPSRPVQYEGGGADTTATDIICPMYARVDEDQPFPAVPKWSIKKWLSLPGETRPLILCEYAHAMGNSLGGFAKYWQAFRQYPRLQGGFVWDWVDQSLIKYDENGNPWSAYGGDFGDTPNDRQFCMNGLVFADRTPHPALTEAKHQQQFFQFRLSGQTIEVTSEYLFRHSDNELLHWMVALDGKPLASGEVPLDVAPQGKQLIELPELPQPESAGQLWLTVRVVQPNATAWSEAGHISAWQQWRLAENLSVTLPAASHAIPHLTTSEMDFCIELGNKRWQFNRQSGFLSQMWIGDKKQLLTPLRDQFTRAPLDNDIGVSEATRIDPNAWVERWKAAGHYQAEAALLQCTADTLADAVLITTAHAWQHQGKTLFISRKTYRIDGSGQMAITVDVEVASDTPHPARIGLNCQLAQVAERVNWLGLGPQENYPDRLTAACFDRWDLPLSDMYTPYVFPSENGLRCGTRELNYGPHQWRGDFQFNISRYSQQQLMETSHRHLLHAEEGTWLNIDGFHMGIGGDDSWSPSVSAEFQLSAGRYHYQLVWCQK
The test is described as follows: Enzymatic cleavage study (HPLC) with β-galactosidase. In kind it is biochemical, e.coli. To be noted: 100 μM prodrug in PBS, 2 units β-galactosidase, 37°C. Here is the method:
To test the desired, selective enzymatic cleavage and further evaluate compound stability, solutions of each prodrug were prepared in phosphate-buffered saline (PBS), and either β-galactosidase or β-glucosidase were added. After incubation times of 24 h and 48 h, samples from each mixture were analyzed by HPLC to gain insight into the relative amounts of both the remaining prodrug and the liberated 1.
Fig. 3 HPLC traces after 48 h of enzyme incubation for the prodrugs of this study as indicated at their respective peaks. The identity of the employed enzyme is indicated on the left of the chromatogram and the identity of each observed compound is shown above the respective peak. Chromatograms are shown with an offset of 2 along the ordinate to facilitate comparison.
The three following enzymes were employed in this study:
(1) esterase from porcine liver sourced from Sigma Aldrich as dry powder with an activity of 229.4 units/mg protein as indicated by the supplier for the received lot; (2) β-glucosidase from almonds sourced from Sigma Aldrich as dry powder with an activity of 11.7 U/mg as indicated by the supplier for the received lot
(3) β-galactosidase from e.coli overproducer sourced from Roche as prepared aqueous solution with an activity of 1500 units/mL protein as indicated by the supplier for the […]
As indicated for each experiment below, the respective enzyme was dissolved in PBS buffer and diluted as appropriate to produce the desired concentration.
25 mM stock solutions in DMSO were prepared for 2a, 2b, 3a, and 3b. From these stock solutions, 4 µL was added to 1 mL of PBS buffer, respectively, in separate glass vials, achieving a final concentration of 100 µM. The vials were then assigned to one of three experimental groups: control, negative, and positive.
In the control group, no enzyme was introduced. The negative group received 2 units of esterase enzyme, while the positive group received 2 units of the target enzyme as indicated, either β-galactosidase or β-glucosidase. All vials were incubated in a 37°C water bath for 48 hours. Aliquots were extracted from each vial after 24 and 48 hours, respectively, and analyzed as described below.
The extracted aliquots were analyzed via high-performance liquid chromatography (HPLC) with ultraviolet (UV) detection at a wavelength of 254 nm. Chromatograms were plotted with an offset of 1 along the y-axis to allow clear intercomparison of the data across the […]

The next test concerns GM5756 fibroblast cells. As to the kind of experiment: MTT cell viability assay, GM5756 fibroblast cells (non-cancerous control). The settings on record: 72 h incubation, mean and SD of three independent experiments, read-out: IC50 against GM5756. In kind it is cell-based. Here is the method: as §1, §2, §3, §4
The nature of test [1]: Fe(III) binding study by UV-vis spectroscopy. To be noted: 30 μM compound, excess FeCl3 (50 μM), methanol. Here is the method: With the prodrugs in hand, binding studies were carried out using UV-vis spectroscopy; this was done to confirm the Fe(III) binding ability of all new compounds. […] To evaluate whether 2a, 2b, 3a, and 3b were chelating Fe(III), each prodrug was similarly dissolved in a solution containing excess FeCl3.
Fig. 2 UV-vis absorption spectra for prodrugs 2a/b and 3a/b as well as 1 at a concentration of 30 μM with an excess of FeCl3 as Fe(III) source (50 μM) in methanol.
UV-vis spectra were recorded in methanol containing the indicated ligand or prodrug at a concentration of 30 µM and as appropriate Fe(III) at a concentration of 50 µM. A stock solution of FeCl3 in DMSO was used as source of Fe(III) and ligands were added from a […] stock solution in DMSO. All samples contained a final concentration of <0.2% DMSO.
Figure S7: UV-vis absorption spectra of 1, Fe(III), and 1 + Fe(III). The graph for 1 + Fe(III) (Numerically) was constructed by numerically adding the respective signals of Fe(III) and 1 to show what graph could be expected if the two species were in the same solution without interacting.
Figure S8: UV-vis absorption spectra of 2a, Fe(III), and 2a + Fe(III). The graph for 2a + Fe(III) (Numerically) was constructed by numerically adding the respective signals of Fe(III) and 2a to show what graph could be expected if the two species were in the same solution without interacting. […]

As a reminder, the IC50 is the point on the concentration scale where inhibition reaches its midpoint. As to `OC[C@H]1OC(Oc2ccccc2-c2nc(-c3ccccc3O)nn2-c2ccccc2)[C@H](O)[C@@H](O)[C@H]1O` (some centres unmarked) [2a], the IC50 in the test with A549 cells is 74.4 ± 14.1 µM; in the test with OvCar-3 cells it was 67.6 ± 13 µM; with GM5756 fibroblast cells it was above 100 µM. For the same compound, the “Release of 1 (HPLC)” value at β-galactosidase (24 h) and at β-galactosidase (48 h) was “no release of 1 was observed” each time. In addition, the “Absorbance at 510 nm (Fe(III) chelation band)” value (“Absorbance at 510 nm” below) in test [1] is recorded as “no relevant absorbance at 510 nm”.
On to `OC[C@H]1OC(Oc2ccccc2-c2nc(-c3ccccc3O)nn2-c2ccccc2)[C@H](O)[C@@H](O)[C@@H]1O` (some centres unmarked) [2b], for which the concentration for half-maximal inhibition (IC50) in the test on A549 cells was above 100 µM; in the test with OvCar-3 cells, 76.5 ± 0.8 µM; with GM5756 fibroblast cells it was above 100 µM. Also, the “Absorbance at 510 nm” value in test [1] was “no relevant absorbance at 510 nm”.
For the compound `OC[C@H]1OC(Oc2ccc(COc3ccccc3-c3nc(-c4ccccc4O)nn3-c3ccccc3)cc2)[C@H](O)[C@@H](O)[C@H]1O` (some centres unmarked) [3a], the IC50 in the test with A549 cells was 44.1 ± 2.4 µM; with OvCar-3 cells it was 9.1 ± 1.6 µM; in the test with GM5756 fibroblast cells, above 100 µM. Also, the “Release of 1 (HPLC)” value on β-galactosidase (24 h) is listed as “significant release of 1”; at β-galactosidase (48 h), “further increased”. Further, in test [1], the “Absorbance at 510 nm” value is given as “no relevant absorbance at 510 nm”.
On to `OC[C@H]1OC(Oc2ccc(COc3ccccc3-c3nc(-c4ccccc4O)nn3-c3ccccc3)cc2)[C@H](O)[C@@H](O)[C@@H]1O` (some centres unmarked) [3b], for which the IC50 with A549 cells is 7.4 ± 1.5 µM; in the test with OvCar-3 cells it was 3.7 ± 0.3 µM; in the test with GM5756 fibroblast cells, 15.3 ± 2.3 µM. Further, the “Absorbance at 510 nm” value in test [1] is “no relevant absorbance at 510 nm”.
